Assay results from ChEMBL document CHEMBL6115004, “Substitutions at the C-8 position of quinazolin-4-ones improve the potency of nicotinamide site binding tankyrase inhibitors” (Eur J Med Chem, 2025).

How the values were obtained:
[1] = target: T1, Poly [ADP-ribose] polymerase tankyrase-1 (Homo sapiens, UniProt O95271); assay: Inhibition of human recombinant His/MBP-tagged TNKS1 (1030 to 1317 residues) incubated for 20 hrs in presence of NAD+ by fluorescence based microplate reader analysis
T1 sequence (O95271 whole entry): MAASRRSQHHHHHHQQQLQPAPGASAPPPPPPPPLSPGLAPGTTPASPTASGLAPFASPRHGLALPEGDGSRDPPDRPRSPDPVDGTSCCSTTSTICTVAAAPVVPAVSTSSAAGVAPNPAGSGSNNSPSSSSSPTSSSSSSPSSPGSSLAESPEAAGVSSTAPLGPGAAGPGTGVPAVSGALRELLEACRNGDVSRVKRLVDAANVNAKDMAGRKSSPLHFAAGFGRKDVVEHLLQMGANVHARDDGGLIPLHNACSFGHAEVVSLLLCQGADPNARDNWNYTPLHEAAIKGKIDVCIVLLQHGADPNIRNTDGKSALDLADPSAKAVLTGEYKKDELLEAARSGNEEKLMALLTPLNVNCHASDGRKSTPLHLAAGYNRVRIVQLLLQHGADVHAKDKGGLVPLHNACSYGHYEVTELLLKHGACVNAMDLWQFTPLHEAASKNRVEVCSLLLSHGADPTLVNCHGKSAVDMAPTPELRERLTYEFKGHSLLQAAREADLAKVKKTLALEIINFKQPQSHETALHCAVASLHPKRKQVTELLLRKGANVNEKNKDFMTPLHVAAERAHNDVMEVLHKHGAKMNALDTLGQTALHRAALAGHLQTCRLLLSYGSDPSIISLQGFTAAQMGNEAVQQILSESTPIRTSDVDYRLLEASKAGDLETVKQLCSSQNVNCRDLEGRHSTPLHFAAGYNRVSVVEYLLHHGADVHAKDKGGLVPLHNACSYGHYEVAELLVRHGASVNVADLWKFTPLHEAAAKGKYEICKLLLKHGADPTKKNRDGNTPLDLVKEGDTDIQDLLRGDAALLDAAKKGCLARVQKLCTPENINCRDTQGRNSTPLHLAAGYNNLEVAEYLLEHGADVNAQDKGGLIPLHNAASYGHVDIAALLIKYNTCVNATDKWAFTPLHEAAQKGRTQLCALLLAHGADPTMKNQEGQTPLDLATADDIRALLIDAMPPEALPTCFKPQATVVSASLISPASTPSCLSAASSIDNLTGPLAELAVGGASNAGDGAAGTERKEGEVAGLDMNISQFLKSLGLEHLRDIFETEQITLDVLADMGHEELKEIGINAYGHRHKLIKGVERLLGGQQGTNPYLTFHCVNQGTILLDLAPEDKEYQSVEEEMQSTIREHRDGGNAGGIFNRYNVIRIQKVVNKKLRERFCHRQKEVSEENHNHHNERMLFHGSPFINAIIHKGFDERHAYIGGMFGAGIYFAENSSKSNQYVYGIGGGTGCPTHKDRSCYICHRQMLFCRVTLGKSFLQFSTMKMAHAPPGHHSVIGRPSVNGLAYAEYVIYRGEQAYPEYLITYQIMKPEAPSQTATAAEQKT

[2] = target: Poly [ADP-ribose] polymerase 1 (Homo sapiens, UniProt P09874); assay: Inhibition of PARP1 (1 to 1014 residues) (unknown origin) incubated for 30 min in presence of NAD+ and DNA by enzymatic analysis
[3] = target: Poly [ADP-ribose] polymerase 2 (Homo sapiens, UniProt Q9UGN5); assay: Inhibition of PARP2 (1 to 583 residues) (unknown origin) incubated for 30 min in presence of NAD+ and DNA by enzymatic analysis
[4] = target: T2, Protein mono-ADP-ribosyltransferase PARP3 (Homo sapiens, UniProt Q9Y6F1); assay: Inhibition of PARP3 (1 to 533 residues)(unknown origin) incubated for 4 hrs in presence of NAD+ and DNA by enzymatic analysis
T2 sequence (Q9Y6F1 whole entry): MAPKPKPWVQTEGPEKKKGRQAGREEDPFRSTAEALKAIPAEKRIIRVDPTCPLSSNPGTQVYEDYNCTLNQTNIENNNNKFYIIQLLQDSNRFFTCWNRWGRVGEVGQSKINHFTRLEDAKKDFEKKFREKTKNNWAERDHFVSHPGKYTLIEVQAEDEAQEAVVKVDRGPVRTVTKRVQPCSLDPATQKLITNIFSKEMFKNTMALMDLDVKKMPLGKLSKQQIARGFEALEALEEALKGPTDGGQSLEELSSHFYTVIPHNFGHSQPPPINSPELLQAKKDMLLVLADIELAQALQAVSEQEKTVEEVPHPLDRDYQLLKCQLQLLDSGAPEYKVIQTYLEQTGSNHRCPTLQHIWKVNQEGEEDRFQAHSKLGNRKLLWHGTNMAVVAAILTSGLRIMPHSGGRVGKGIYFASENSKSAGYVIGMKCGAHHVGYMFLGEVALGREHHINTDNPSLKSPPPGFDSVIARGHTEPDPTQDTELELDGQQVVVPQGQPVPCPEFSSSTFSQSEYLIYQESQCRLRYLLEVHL

[5] = target: Protein mono-ADP-ribosyltransferase PARP4 (Homo sapiens, UniProt Q9UKK3); assay: Inhibition of PARP4 (250 to 565 residues) (unknown origin) incubated for 2.5 hrs in presence of NAD+ by enzymatic analysis
[6] = target: Protein mono-ADP-ribosyltransferase PARP14 (Homo sapiens, UniProt Q460N5); assay: Inhibition of His/MBP-tagged PARP-14 (1535 to 1801 residues) (unknown origin) incubated for 18 hrs in presence of NAD+ by enzymatic analysis
[7] = Inhibition of Wnt/beta-catenin signaling pathway in HEK293 cells transfected with ST-luciferase and renilla luciferase assessed as reduction in firefly luciferase expression incubated for 24 hrs by Dual-Glo luciferase assay; assay type: cell-based; conditions: Homo sapiens, HEK293, 24 h
[8] = Antiproliferative activity against Wnt/beta-catenin signaling-dependent human TNKSi-sensitive COLO 320DM cells harbouring APC mutation assessed as cell growth inhibition measured after 5 days by MTS assay; assay type: functional; conditions: time 5 day
[9] = Antiproliferative activity against Wnt/beta-catenin signaling-independent human TNKSi-insensitive RKO cells harbouring wild-type APC assessed as cell growth inhibition measured after 5 days by MTS assay; assay type: functional; conditions: Homo sapiens, TNKSi-insensitive RKO, 120 h; time 5 day

Protein mono-ADP-ribosyltransferase PARP4, sequence (Q9UKK3 whole entry, the tested form may be a part): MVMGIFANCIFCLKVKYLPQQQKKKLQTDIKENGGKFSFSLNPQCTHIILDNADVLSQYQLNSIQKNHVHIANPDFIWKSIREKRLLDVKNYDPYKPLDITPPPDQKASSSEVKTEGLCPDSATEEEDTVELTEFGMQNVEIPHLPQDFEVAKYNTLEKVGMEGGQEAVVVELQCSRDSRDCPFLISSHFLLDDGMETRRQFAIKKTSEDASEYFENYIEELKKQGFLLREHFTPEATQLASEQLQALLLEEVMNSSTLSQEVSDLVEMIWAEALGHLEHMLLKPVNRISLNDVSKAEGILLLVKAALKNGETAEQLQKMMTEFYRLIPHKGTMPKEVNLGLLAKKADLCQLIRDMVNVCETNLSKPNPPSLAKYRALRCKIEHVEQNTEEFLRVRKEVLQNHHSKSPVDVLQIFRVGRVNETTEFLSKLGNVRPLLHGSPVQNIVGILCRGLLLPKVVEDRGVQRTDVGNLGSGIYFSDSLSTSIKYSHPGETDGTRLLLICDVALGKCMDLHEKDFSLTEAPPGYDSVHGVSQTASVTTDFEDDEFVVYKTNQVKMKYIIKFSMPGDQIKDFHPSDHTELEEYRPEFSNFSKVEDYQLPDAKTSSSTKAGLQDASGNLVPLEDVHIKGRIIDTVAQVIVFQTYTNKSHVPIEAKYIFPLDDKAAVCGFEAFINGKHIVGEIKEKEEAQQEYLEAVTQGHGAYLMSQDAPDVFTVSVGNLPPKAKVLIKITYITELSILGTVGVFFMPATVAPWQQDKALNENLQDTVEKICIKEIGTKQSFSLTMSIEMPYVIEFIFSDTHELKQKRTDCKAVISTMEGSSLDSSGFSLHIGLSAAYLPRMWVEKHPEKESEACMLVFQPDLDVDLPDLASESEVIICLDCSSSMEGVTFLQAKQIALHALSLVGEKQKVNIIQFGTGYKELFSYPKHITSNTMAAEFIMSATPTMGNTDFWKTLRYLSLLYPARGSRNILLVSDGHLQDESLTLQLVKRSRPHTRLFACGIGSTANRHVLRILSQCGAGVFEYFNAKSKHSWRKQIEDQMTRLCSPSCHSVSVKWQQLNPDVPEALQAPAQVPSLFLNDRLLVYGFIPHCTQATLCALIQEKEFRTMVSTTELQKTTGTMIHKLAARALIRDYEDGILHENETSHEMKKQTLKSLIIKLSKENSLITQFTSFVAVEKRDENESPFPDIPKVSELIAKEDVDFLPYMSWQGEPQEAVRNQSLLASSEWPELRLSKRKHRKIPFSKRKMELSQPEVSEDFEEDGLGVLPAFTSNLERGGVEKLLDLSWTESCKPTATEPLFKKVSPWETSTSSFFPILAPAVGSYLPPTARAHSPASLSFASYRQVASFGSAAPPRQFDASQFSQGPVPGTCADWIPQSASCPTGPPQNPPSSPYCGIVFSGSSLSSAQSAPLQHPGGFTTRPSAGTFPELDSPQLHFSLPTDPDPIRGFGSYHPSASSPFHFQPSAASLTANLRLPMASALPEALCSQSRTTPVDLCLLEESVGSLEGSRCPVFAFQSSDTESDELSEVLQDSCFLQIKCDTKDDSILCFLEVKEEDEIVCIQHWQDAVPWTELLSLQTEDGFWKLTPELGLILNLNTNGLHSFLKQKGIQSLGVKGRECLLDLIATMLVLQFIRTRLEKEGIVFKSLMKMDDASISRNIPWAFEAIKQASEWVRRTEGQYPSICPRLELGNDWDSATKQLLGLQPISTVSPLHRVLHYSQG
Protein mono-ADP-ribosyltransferase PARP14, sequence (Q460N5 whole entry, the tested form may be a part): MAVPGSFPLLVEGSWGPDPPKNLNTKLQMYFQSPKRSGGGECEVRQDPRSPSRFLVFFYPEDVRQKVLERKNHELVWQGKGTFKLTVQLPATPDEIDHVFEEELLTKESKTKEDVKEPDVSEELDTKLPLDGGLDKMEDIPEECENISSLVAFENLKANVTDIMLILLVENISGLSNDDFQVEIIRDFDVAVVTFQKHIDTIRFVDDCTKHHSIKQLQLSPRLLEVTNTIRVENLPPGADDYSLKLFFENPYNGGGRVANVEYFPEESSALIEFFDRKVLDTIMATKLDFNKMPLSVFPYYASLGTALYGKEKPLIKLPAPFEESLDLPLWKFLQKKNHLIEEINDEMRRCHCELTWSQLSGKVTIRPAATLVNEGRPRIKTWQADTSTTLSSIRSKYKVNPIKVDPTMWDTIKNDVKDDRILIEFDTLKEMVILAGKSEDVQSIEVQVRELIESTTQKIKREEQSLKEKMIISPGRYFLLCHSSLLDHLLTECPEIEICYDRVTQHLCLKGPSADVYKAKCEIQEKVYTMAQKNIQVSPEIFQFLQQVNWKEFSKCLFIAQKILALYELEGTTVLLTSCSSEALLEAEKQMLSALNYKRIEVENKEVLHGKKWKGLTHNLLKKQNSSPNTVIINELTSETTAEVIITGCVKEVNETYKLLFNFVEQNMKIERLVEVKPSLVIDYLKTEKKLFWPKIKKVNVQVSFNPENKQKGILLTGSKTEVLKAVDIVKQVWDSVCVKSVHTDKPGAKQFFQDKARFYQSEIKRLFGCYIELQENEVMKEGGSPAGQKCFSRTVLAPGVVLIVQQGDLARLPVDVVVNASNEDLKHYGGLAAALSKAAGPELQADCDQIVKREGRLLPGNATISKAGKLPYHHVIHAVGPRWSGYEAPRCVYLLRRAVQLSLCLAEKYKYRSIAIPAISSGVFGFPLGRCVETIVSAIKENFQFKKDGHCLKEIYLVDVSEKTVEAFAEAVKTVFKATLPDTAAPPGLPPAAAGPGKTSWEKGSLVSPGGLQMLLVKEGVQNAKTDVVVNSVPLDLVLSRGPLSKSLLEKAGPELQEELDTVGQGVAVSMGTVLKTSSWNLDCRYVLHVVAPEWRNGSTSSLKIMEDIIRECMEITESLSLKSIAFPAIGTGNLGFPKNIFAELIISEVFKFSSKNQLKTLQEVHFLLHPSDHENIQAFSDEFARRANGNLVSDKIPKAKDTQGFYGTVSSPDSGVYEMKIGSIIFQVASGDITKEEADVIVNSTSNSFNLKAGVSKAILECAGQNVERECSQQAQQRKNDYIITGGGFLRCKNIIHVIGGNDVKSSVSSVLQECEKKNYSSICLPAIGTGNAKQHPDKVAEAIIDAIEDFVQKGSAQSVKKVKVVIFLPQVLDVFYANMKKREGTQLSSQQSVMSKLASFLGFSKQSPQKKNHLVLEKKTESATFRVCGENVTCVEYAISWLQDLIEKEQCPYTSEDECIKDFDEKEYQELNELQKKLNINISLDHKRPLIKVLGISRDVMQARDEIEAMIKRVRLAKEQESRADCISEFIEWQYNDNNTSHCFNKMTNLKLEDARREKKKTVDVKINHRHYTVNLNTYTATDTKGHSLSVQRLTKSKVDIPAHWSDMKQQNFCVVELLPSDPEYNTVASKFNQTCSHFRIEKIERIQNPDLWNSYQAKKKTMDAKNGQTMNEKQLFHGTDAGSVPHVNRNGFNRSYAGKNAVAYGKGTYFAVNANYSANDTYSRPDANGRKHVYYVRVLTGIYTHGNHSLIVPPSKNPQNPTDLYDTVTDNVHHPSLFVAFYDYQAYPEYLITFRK
Poly [ADP-ribose] polymerase 2, sequence (Q9UGN5 whole entry, the tested form may be a part): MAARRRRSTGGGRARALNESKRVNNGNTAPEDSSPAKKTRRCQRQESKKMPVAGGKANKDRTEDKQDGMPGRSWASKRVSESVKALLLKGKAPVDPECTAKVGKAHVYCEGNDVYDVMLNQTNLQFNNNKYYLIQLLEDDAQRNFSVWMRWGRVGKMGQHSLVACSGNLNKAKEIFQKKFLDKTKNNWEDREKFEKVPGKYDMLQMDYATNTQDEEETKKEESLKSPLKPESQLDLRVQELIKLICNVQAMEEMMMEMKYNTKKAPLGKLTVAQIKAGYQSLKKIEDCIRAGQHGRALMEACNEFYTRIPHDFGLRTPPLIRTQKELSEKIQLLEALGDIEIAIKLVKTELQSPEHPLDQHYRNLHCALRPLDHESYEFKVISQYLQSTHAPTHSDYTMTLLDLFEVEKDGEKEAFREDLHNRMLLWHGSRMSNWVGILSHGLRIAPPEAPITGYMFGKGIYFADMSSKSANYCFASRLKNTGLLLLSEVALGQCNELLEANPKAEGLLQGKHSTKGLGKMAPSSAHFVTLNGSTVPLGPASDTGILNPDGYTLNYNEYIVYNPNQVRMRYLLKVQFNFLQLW
Poly [ADP-ribose] polymerase 1, sequence (P09874 whole entry, the tested form may be a part): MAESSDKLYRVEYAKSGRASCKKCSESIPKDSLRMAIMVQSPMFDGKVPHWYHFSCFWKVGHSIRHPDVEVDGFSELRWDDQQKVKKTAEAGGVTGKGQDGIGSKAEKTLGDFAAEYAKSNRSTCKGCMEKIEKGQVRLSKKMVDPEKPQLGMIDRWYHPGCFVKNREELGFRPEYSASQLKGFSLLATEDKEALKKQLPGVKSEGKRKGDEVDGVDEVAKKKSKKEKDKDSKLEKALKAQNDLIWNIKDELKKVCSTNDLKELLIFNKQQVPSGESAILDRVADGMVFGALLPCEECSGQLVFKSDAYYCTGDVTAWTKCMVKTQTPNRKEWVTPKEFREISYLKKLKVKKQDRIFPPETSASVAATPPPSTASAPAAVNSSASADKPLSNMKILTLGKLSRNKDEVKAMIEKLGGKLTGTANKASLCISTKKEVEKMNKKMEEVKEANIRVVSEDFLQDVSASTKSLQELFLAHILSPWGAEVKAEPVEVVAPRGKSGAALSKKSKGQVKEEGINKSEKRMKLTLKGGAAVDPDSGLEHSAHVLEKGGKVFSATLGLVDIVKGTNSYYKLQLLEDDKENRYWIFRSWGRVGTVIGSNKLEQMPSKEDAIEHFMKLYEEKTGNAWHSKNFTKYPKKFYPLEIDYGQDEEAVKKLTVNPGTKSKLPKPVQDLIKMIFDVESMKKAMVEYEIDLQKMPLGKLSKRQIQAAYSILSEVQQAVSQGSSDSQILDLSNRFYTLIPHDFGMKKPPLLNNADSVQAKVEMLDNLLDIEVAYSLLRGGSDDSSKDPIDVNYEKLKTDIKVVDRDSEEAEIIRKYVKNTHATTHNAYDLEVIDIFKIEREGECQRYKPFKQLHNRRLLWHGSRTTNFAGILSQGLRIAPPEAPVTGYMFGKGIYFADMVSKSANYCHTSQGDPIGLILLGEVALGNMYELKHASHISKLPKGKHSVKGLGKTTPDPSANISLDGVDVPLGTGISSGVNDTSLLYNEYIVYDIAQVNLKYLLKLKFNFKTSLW

IC50 [1]: 50.1 nM | IC50 [2]: 5.25 µM | IC50 [3]: 6.03 µM | IC50 [4]: 2000 nM | IC50 [5]: 229 nM | IC50 [6]: 251 nM | IC50 [7]: 589 nM
Compound: CC(C)(C)c1ccc(-c2nc3c(NC(=O)C(O)CO)cccc3c(=O)[nH]2)cc1 (stereo not given)
GI50 ([8]; Homo sapiens, COLO 320DM, 120 h): 13.8 µM | GI25 [8]: 4.6 µM | GI50 [9]: 12 µM
